One molecule from US10683278B2 (JINAN UNIVERSITY, priority 2015, dated 2020) can be followed below.

pIC50: −log10 of the molar value. A value given as a limit tells only on which side of the number the result lay.

One assay deals with Molm-13 cells. Kind of assay: Inhibition of proliferation of Molm-13 cells (CCK-8). It counts as cell-based. As to conditions: Homo sapiens, 72 h, mean±standard deviation of two independent tests. Here is the method: [Worded in the source for another cell line; this cell line is reported under the same test.] (§1) 12000 g of compounds were centrifuged for 5 min, DMSO was added to make a 10^−2M stock solution, vortexed uniformly and sonicated for 10 min for standby application, and stored at −40° C. The compounds were diluted from the stock solution with saline to 10 times the concentration to be tested (concentration of DMSO in the system being no more than 0.5%) during the test.
(§2) The inhibitory effect of the compounds on the proliferation of MV4-11 cells was detected using a CCK-8 cell counting kit (Dojindo). The specific steps are as follows: the MV4-11 cells in logarithmic growth phase were seeded into a 96-well culture plate at a suitable density in 90 μL/well, cultured overnight, compounds at different concentrations were then added and acted on cells for 72 hr, and the solvent control group (negative control) was set up. The effect of the compounds on cell proliferation was detected using a CCK-8 cell counting kit (Dojindo) after the compounds had acted on the cells for 72 h. 10 μL of CCK-8 reagent was added to each well, same was placed in an incubator at 37° C. for 2-4 hours, and the reading from the full-wavelength microwell plate ELIASA SpectraMax 190 was performed with a wavelength of 450 nm.
(§3) IC50 value was calculated using a software included with ELIASA by the four-parameter regression.
(§4) IC50 for the inhibition of the compounds on each stain of cells was derived from two independent repeated tests, and the results are shown as the mean±standard deviation.

The subject of the next assay is MV4-11 cells. The assay is described as follows: Inhibition of proliferation of MV4-11 cells (CCK-8). As to conditions: Homo sapiens, 72 h, mean±standard deviation of two independent tests. In kind it is cell-based. How it is done:
as §1, §2, §3, §4

In a further assay the target is T1, AXL kinase (Homo sapiens, UniProt P30530).
T1 construct: purchased Invitrogen PV4803
T1 sequence (P30530 26-894): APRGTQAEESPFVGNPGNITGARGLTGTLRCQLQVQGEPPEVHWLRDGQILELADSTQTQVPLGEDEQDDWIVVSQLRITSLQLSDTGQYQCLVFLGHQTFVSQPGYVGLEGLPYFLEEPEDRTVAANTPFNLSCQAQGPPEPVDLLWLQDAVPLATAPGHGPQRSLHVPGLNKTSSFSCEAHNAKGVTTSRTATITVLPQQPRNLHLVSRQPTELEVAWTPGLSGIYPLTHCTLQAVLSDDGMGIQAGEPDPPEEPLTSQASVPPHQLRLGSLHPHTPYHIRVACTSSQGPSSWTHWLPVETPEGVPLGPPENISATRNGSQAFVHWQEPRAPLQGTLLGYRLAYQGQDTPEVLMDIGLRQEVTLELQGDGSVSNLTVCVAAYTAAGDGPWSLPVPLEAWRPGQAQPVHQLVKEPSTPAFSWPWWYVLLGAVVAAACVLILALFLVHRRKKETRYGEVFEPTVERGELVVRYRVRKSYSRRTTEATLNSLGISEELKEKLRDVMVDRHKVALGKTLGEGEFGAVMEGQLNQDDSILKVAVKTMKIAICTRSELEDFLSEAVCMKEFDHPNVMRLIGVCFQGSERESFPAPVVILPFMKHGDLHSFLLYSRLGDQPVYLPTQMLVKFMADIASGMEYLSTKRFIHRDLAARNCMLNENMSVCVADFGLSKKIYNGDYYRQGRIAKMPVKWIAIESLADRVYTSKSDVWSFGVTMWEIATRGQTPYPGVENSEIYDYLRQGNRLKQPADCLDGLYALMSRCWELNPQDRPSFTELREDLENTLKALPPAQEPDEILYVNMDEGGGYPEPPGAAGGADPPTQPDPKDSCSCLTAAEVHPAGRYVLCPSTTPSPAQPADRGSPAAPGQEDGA
The assay is described as follows: IC50 test on AXL kinase (Z′-LYTE FRET kinase activity detection). In kind it is biochemical. Put shortly: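 Z′-LYTE FRET readout: after 1 h kinase reaction (AXL, Tyr 2 peptide, ATP, compound dilutions), a 1 h protease step cuts unphosphorylated substrate. Excitation at 400 nm, signals at 445 nm and 520 nm used to derive IC50.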

Regarding `CCc1ccc2c(c1)c(=O)c(C(=O)Nc1ccc(Oc3ncnc4cc(OC)c(OC)cc34)c(F)c1)c(CC)n2C` [TL4830074, N-(4-(6,7-dimethoxyquinazolin-4-yloxy)-3-fluorophenyl)-2,6-diethyl-1-methyl-4-oxo-1,4-dihydroquinoline-3-carboxamide], the values for the IC50 in the assay on Molm-13 cells and in the assay on MV4-11 cells were > 300 nM and > 500 nM, respectively. The pIC50 on AXL kinase (Z′-LYTE FRET peptide assay, 1 h reaction) is 8.05. Besides, the “inhibitory activity on AXL kinase” value on AXL kinase (competitive experiment with ATP, in words) is “strong inhibitory activity”.
